# Measurements from patent US12643879B2, “Functionalized heterocyclic compounds as modulators of stimulator of interferon genes (STING)” (RYVU THERAPEUTICS S.A., priority 2019, dated 2026).
# Where a name gives a salt, the structure may show the parent alone. Read-outs that look alike come from different tables or passages of the source.
# Experiments:
# human STING = human STING (Homo sapiens, UniProt Q86WV6); test: Fluorescence Thermal Shift assay (binding to STING); conditions: STING 0.1 mg/mL, SyproOrange, 25 to 99° C.
# Method: Compounds, constructs and conjugates of the present invention were tested for binding to human STING in Fluorescence Thermal Shift assay. STING was preincubated with the compounds for 20 minutes in 50 mM Hepes, 150 mM NaCl, pH 7.5 in 15 or 16 μl volume, following by adding 4 μl of SyproOrange dye dilution (ThermoFisher, cat no. S-6651). Final STING concentration was 0.1 mg/mL. Thermal unfolding was performed in Real-Time PCR QuantStudio 6 Flex System (Applied Biosystems), from 25 to 99° C., with continuous ramp mode and ramp rate 0.033° C./s. The data were analyzed using Protein Thermal Shift Software (ThermoFisher).
# [1] = test system: interferon regulatory factor (IRF) pathway in THP-1 dual cells; test: THP-1 Dual reporter assay, IRF pathway (luciferase); assay type: cell-based; conditions: Homo sapiens, THP1-Dual, read-out: THP1 Dual EC50 (μM) IRF
# Outline: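 After 18 h exposure of THP-1 dual cells to the STING agonist compounds, culture medium was collected. Part was mixed with luminescence reagent and read at once for IRF-driven luciferase; another part was incubated with SEAP detection medium for 1 or 2 hours at 37° C before absorbance at 630 or 655 nm.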
# [2] = test system: NF-κB pathway in THP-1 dual cells; test: THP-1 Dual reporter assay, NF-κB pathway (SEAP); assay type: cell-based; conditions: Homo sapiens, THP1-Dual, read-out: THP1 Dual EC50 (μM) NFkB
# Outline: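 Luminescence (IRF arm, luciferase under ISG54 minimal promoter with five ISREs) and absorbance at 630 or 655 nm (NF-κB arm, SEAP under IFN-β minimal promoter with NF-κB elements) were measured in supernatants of THP-1 dual cells stimulated 18 h with compound.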
# [3] = 18 h stimulation, absorbance at 630 or 655 nm
# Chain of human STING (Q86WV6 whole entry H232R): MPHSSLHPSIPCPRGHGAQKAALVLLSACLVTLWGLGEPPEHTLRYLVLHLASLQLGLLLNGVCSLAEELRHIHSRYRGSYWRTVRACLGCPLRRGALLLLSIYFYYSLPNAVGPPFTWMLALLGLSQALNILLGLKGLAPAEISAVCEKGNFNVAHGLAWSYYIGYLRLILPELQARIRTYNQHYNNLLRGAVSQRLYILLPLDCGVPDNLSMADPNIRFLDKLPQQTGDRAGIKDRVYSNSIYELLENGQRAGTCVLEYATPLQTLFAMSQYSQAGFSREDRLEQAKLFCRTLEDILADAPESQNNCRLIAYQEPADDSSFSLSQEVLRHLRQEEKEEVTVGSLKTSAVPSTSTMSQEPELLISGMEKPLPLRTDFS
Structure (SMILES),hSTING FTS binding assay (ΔT C. °) (human STING),"EC50 ([1]; 18 h stimulation, luminescence) [µM]","EC50 [2, 3] [µM]",EC50 ([1]; 18 h) [µM],EC50 ([2]; 18 h) [µM]
"Cc1ccc(N2CCC[C@H](N(Cc3ccnc(C)c3)Cc3cn(C4CC4)c4cc(N)c(F)cc4c3=O)C2)cn1 [Example 7, 7-Amino-1-cyclopropyl-6-fluoro-3-({[(3S)-1-(6-methylpyridin-3-yl)piperidin-3-yl][(2-methylpyridin-4-yl)methyl]amino}methyl)-1,4-dihydroquinolin-4-one]",+++ (+++=ΔTm ≥20° C.),< 1,< 1,,
"Cc1cc(CN(Cc2cn(C)c3cc(Br)ccc3c2=O)[C@H]2CCCN(c3ccc(N)nc3)C2)ccn1.Cl [Example 29, 3-({[(3S)-1-(6-aminopyridin-3-yl)piperidin-3-yl][(2-methylpyridin-4-yl)methyl]amino}methyl)-7-bromo-1-methyl-1,4-dihydroquinolin-4-one hydrochloride]",+++ (+++=ΔTm ≥20° C.),< 1,< 1,,
"Cc1ccc(N2CCC[C@H](N(Cc3ccnc(C)c3)Cc3cn(CCN)c4ccccc4c3=O)C2)cn1 [Example 18, 1-(2-Aminoethyl)-3-({[(3S)-1-(6-methylpyridin-3-yl)piperidin-3-yl][(2-methylpyridin-4-yl)methyl]amino}methyl)-1,4-dihydroquinolin-4-one]",+ (+=ΔTm ≤10° C.),,,1 to 10,1 to 10
"Cc1ccc(N2CCC[C@H](N(Cc3ccnc(C)c3)Cc3cn(C4CC4)c4cc(N5CCCC(C(=O)O)C5)c(F)cc4c3=O)C2)cn1 (stereo partly drawn) [Example 66, 1-[1-cyclopropyl-6-fluoro-3-({[(3S)-1-(6-methylpyridin-3-yl)piperidin-3-yl][(2-methylpyridin-4-yl)methyl]amino}methyl)-4-oxo-1,4-dihydroquinolin-7-yl]piperidine-3-carboxylic acid]",+++ (+++=ΔTm ≥20° C.),1 to 10,1 to 10,,
"Cc1ccc(N2CCC[C@H](N(Cc3ccnc(C)c3)Cc3cn(C4CC4)c4cc(N5CC(N)C6(CC6)C5)c(F)cc4c3=O)C2)cn1.Cl (stereo partly drawn) [Example 22, 7-{7-amino-5-azaspiro[2.4]heptan-5-yl}-1-cyclopropyl-6-fluoro-3-({[(3S)-1-(6-methylpyridin-3-yl)piperidin-3-yl][(2-methylpyridin-4-yl)methyl]amino}methyl)-1,4-dihydroquinolin-4-one hydrochloride]",+++ (+++=ΔTm ≥20° C.),< 1,< 1,,
"Cc1cc(CN(Cc2cn(C(C)C)c3cc(N4CC[C@@H](O)C4)ccc3c2=O)[C@H]2CCCN(c3ccnnc3)C2)ccn1 [Example 49, 7-[(3R)-3-hydroxypyrrolidin-1-yl]-3-({[(2-methylpyridin-4-yl)methyl][(3S)-1-(pyridazin-4-yl)piperidin-3-yl]amino}methyl)-1-(propan-2-yl)-1,4-dihydroquinolin-4-one]",+ (+=ΔTm ≤10° C.),> 10,> 10,,
"Cc1ccc(N2CCC[C@H](N(Cc3ccnc(C)c3)Cc3cn(C4CC4)c4cc(N5CC[C@H](CN)C5)c(F)cc4c3=O)C2)cn1 [Example 15, 7-[(3R)-3-(Aminomethyl)pyrrolidin-1-yl]-1-cyclopropyl-6-fluoro-3-({[(3S)-1-(6-methylpyridin-3-yl)piperidin-3-yl][(2-methylpyridin-4-yl)methyl]amino}methyl)-1,4-dihydroquinolin-4-one hydrochloride]",+++ (+++=ΔTm ≥20° C.),< 1,< 1,,
"Cc1ccc(N2CCC[C@H](N(Cc3ccnc(C)c3)Cc3cn(C4CC4)c4cc(OCCN)c(F)cc4c3=O)C2)cn1 [Example 10, 7-(2-Aminoethoxy)-1-cyclopropyl-6-fluoro-3-({[(3S)-1-(6-methylpyridin-3-yl)piperidin-3-yl][(2-methylpyridin-4-yl)methyl]amino}methyl)-1,4-dihydroquinolin-4-one]",+++ (+++=ΔTm ≥20° C.),< 1,< 1,,
"Cc1ccc(N2CCC[C@H](N(Cc3ccnc(C)c3)Cc3cn(C4CC4)c4cc(N5CC[C@@H](O)C5)c(F)cc4c3=O)C2)cn1.Cl [Example 14, 1-Cyclopropyl-6-fluoro-7-[(3R)-3-hydroxypyrrolidin-1-yl]-3-({[(3S)-1-(6-methylpyridin-3-yl)piperidin-3-yl][(2-methylpyridin-4-yl)methyl]amino}methyl)-1,4-dihydroquinolin-4-one hydrochloride]",+++ (+++=ΔTm ≥20° C.),< 1,< 1,,
"Cc1ccc(N2CCC[C@H](N(Cc3ccnc(C)c3)Cc3cn(C4CC4)c4cc(N5CCC6NCCC6C5)c(F)cc4c3=O)C2)cn1 (stereo partly drawn) [Example 68, 1-cyclopropyl-6-fluoro-3-({[(3S)-1-(6-methylpyridin-3-yl)piperidin-3-yl][(2-methylpyridin-4-yl)methyl]amino}methyl)-7-{octahydro-1H-pyrrolo[3,2-c]pyridin-5-yl}-1,4-dihydroquinolin-4-one]",+++ (+++=ΔTm ≥20° C.),< 1,< 1,,
"Cc1cnc(N2C[C@@H](F)C[C@H](N(Cc3ccnc(C)c3)Cc3cn(C4CC4)c4cc(N5CCC[C@H](O)C5)c(F)cc4c3=O)C2)cn1 [Example 82, 1-cyclopropyl-6-fluoro-3-({[(3S,5S)-5-fluoro-1-(5-methylpyrazin-2-yl)piperidin-3-yl][(2-methylpyridin-4-yl)methyl]amino}methyl)-7-[(3S)-3-hydroxypiperidin-1-yl]-1,4-dihydroquinolin-4-one]",++ (++=10<ΔTm <20° C.),< 1,< 1,,
"Cc1ccc(N2CCC[C@H](N(Cc3ccnc(C)c3)Cc3cn(C4CC4)c4cc(N5CC[C@@H](CN)C5)c(F)cc4c3=O)C2)cn1.Cl [Example 20, 7-[(3S)-3-(aminomethyl)pyrrolidin-1-yl]-1-cyclopropyl-6-fluoro-3-({[(3S)-1-(6-methylpyridin-3-yl)piperidin-3-yl][(2-methylpyridin-4-yl)methyl]amino}methyl)-1,4-dihydroquinolin-4-one hydrochloride]",+++ (+++=ΔTm ≥20° C.),< 1,< 1,,
"CNCCOc1cc2c(cc1F)c(=O)c(CN(Cc1ccnc(C)c1)[C@H]1CCCN(c3ccc(C)nc3)C1)cn2C1CC1.Cl [Example 11, 1-Cyclopropyl-6-fluoro-7-[2-(methylamino)ethoxy]-3-({[(3S)-1-(6-methylpyridin-3-yl)piperidin-3-yl][(2-methylpyridin-4-yl)methyl]amino}methyl)-1,4-dihydroquinolin-4-one hydrochloride]",+++ (+++=ΔTm ≥20° C.),< 1,< 1,,
"Cc1ccc(N2CCC[C@H](N(Cc3ccnc(N)c3)Cc3cn(C4CC4)c4cc(F)c(F)cc4c3=O)C2)cn1.Cl [Example 5, 3-({[(2-Aminopyridin-4-yl)methyl][(3S)-1-(6-methylpyridin-3-yl)piperidin-3-yl]amino}methyl)-1-cyclopropyl-6,7-difluoro-1,4-dihydroquinolin-4-one hydrochloride]",+++ (+++=ΔTm ≥20° C.),< 1,< 1,,
"Cc1ccc(N2CCC[C@H](N(Cc3ccnc(C)c3)Cc3cn(C4CC4)c4cc(N5CCC(O)CC5)c(F)cc4c3=O)C2)cn1.Cl [Example 32, 1-cyclopropyl-6-fluoro-7-(4-hydroxypiperidin-1-yl)-3-({[(3S)-1-(6-methylpyridin-3-yl)piperidin-3-yl][(2-methylpyridin-4-yl)methyl]amino}methyl)-1,4-dihydroquinolin-4-one hydrochloride]",+++ (+++=ΔTm ≥20° C.),< 1,< 1,,
"Cc1ccc(N2CCC[C@H](N(Cc3ccnc(C)c3)Cc3cn(C4CC4)c4cc(N5CC(CO)C5)c(F)cc4c3=O)C2)cn1 [Example 27, 1-cyclopropyl-6-fluoro-7-[3-(hydroxymethyl)azetidin-1-yl]-3-({[(3S)-1-(6-methylpyridin-3-yl)piperidin-3-yl][(2-methylpyridin-4-yl)methyl]amino}methyl)-1,4-dihydroquinolin-4-one]",+++ (+++=ΔTm ≥20° C.),< 1,< 1,,
"Cc1ccc(N2CCC[C@H](N(Cc3ccnc(C)c3)Cc3cn(C4CC4)c4cc(NCCN)c(F)cc4c3=O)C2)cn1 [Example 8, 7-[(2-Aminoethyl)amino]-1-cyclopropyl-6-fluoro-3-({[(3S)-1-(6-methylpyridin-3-yl)piperidin-3-yl][(2-methylpyridin-4-yl)methyl]amino}methyl)-1,4-dihydroquinolin-4-one]",+++ (+++=ΔTm ≥20° C.),< 1,< 1,,
"Cc1ccc(N2CCC[C@H](N(Cc3ccnc(C)c3)Cc3cn(C)c4cc(N5CC[C@@H](O)C5)ccc4c3=O)C2)cn1 [Example 23, 7-[(3R)-3-hydroxypyrrolidin-1-yl]-1-methyl-3-({[(3S)-1-(6-methylpyridin-3-yl)piperidin-3-yl][(2-methylpyridin-4-yl)methyl]amino}methyl)-1,4-dihydroquinolin-4-one]",++ (++=10<ΔTm <20° C.),< 1,< 1,,
